Patent US20250326732A1 (Pretzel Therapeutics, Inc., priority 2021, published 2025)

Target: POLRMT (Homo sapiens (Human), UniProt O00411)
Assay: homogeneous TR-FRET assay of mitochondrial transcription (inhibition of POLRMT)
Format: biochemical
Conditions: 7.5 nM POLRMT, 15 nM TFB2M, 30 nM TFAM, 0.5 nM DNA template, 500 μM NTPs, 37° C. for 60 minutes
Outline: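 POLRMT transcription from linearized pUC-LSP DNA template; RNA product detected by hybridization of ATTO647 acceptor (1 nM) and biotinylated donor (3 nM) probes plus Europium-streptavidin. Reaction stopped with EDTA/700 mM NaCl buffer, pH 7.5.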

Chain of POLRMT (O00411 42-1230): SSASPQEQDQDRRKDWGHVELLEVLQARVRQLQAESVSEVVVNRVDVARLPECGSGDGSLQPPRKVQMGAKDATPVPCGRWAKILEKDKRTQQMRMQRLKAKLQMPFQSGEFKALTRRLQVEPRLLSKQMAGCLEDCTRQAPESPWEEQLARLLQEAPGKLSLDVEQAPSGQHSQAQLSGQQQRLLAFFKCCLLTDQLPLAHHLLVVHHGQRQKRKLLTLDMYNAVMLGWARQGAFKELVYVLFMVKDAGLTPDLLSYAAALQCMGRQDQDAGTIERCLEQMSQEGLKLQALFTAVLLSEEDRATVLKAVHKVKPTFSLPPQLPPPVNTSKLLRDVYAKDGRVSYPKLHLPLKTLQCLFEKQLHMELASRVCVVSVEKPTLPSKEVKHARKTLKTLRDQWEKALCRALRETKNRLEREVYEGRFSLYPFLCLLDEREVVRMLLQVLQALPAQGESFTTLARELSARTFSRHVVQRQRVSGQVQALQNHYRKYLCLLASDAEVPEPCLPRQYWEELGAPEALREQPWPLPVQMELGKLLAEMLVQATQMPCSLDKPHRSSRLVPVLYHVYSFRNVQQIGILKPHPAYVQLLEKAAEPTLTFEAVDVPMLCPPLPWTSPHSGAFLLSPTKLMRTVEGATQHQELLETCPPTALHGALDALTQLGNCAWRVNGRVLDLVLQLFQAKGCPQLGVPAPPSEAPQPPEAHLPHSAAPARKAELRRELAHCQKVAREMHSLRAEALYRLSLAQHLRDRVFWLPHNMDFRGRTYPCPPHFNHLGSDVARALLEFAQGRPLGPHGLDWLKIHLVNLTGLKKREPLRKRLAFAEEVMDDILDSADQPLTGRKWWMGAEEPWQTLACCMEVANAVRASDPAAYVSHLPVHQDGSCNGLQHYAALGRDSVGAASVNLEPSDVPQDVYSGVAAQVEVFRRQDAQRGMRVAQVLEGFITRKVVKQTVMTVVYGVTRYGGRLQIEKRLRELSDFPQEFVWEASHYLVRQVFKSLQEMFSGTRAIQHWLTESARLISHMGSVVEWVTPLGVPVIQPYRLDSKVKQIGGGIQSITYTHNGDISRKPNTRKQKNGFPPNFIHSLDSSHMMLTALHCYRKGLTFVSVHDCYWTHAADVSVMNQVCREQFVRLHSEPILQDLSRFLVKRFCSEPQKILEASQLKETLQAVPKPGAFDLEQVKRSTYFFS

| IC50 | Structure (SMILES) |
| --- | --- |
| 200 nM | COCCNC(=O)CN(C)c1ccc2c(-c3ccccc3C)cc(=O)oc2c1 [Example 218, N-(2-methoxyethyl)-2-(methyl(2-oxo-4-(o-tolyl)-2H-chromen-7-yl)amino)acetamide] |
| 3000 nM | Cc1ccccc1-c1cc(=O)oc2cc(NCc3nnn[nH]3)ccc12 [Example 184, 7-(((1H-tetrazol-5-yl)methyl)amino)-4-(o-tolyl)-2H-chromen-2-one] |
| 15000 nM | Cc1ccccc1-c1cc(=O)oc2cc(C(=O)N3CC(CO)C3)ccc12 [Example 118, 7-(3-(hydroxymethyl)azetidine-1-carbonyl)-4-(o-tolyl)-2H-chromen-2-one] |
| 400 nM | CNC(=O)[C@@H]1C[C@@H]1c1ccc2c(-c3ccccc3C)cc(=O)oc2c1 (relative stereo) [Example 231, (cis)-N-methyl-2-(2-oxo-4-(o-tolyl)-2H-chromen-7-yl)cyclopropane-1-carboxamide] |
| 700 nM | Cc1ccccc1-c1cc(=O)oc2cc(N(C)CCC(N)=O)ccc12 [Example 133, 3-(methyl(2-oxo-4-(o-tolyl)-2H-chromen-7-yl)amino)propanamide] |
| 2000 nM | Cc1ccccc1-c1cc(=O)oc2cc(NCc3ccn(C)n3)ccc12 [Example 119, 7-(((1-methyl-1H-pyrazol-3-yl)methyl)amino)-4-(o-tolyl)-2H-chromen-2-one] |
| 500 nM | Cc1ccccc1-c1cc(=O)oc2cc(NCC(C)C(=O)O)ccc12 (single isomer, unassigned) [Example 155-1, 2-methyl-3-((2-oxo-4-(o-tolyl)-2H-chromen-7-yl)amino)propanoic acid] |
| 1000 nM | Cc1ccccc1-c1cc(=O)oc2cc(N[C@@H](C)CC(=O)O)ccc12 [Example 149, (S)-3-((2-oxo-4-(o-tolyl)-2H-chromen-7-yl)amino)butanoic acid] |
| 5000 nM | Cc1ccccc1-c1cc(=O)oc2cc(C(=O)NCc3nccn3C)ccc12 [Example 122, N-((1-methyl-1H-imidazol-2-yl)methyl)-2-oxo-4-(o-tolyl)-2H-chromene-7-carboxamide] |
| 200 nM | Cc1ccccc1-c1cc(=O)oc2cc(N(C)CC(=O)NCC(N)=O)ccc12 [Example 134, N-(2-amino-2-oxoethyl)-2-(methyl(2-oxo-4-(o-tolyl)-2H-chromen-7-yl)amino)acetamide] |
| 500 nM | COCc1cc(C)c2c(-c3ccccc3C)cc(=O)oc2c1 [Example 163, 7-(methoxymethyl)-5-methyl-4-(o-tolyl)-2H-chromen-2-one] |
| 16000 nM | COC[C@H]1CCN(C(=O)c2ccc3c(-c4ccccc4C)cc(=O)oc3c2)C1 [Example 123, (S)-7-(3-(methoxymethyl)pyrrolidine-1-carbonyl)-4-(o-tolyl)-2H-chromen-2-one] |
| 700 nM | CCOC(=O)[C@H]1C[C@@H]1c1ccc2c(-c3ccccc3C)cc(=O)oc2c1 [Example 225, ethyl (1S,2S)-2-(2-oxo-4-(o-tolyl)-2H-chromen-7-yl)cyclopropane-1-carboxylate] |
| 100 nM | Cc1ccccc1-c1cc(=O)oc2cc(N(C)Cc3ccnn3C)ccc12 [Example 193, 7-(methyl((1-methyl-1H-pyrazol-5-yl)methyl)amino)-4-(o-tolyl)-2H-chromen-2-one] |
| 8000 nM | CC(=O)N(C)C1CCN(C(=O)c2ccc3c(-c4ccccc4C)cc(=O)oc3c2)CC1 [Example 110, N-methyl-N-(1-(2-oxo-4-(o-tolyl)-2H-chromene-7-carbonyl)piperidin-4-yl)acetamide] |
| 400 nM | Cc1ccccc1-c1cc(=O)oc2cc(N(C)CC(C)C(=O)O)ccc12 (stereo not drawn) [Example 155-2] |
| 100 nM | Cc1ccccc1-c1cc(=O)oc2cc(N(C)Cc3nnn[nH]3)ccc12 [Example 179, 7-(((1H-tetrazol-5-yl)methyl)(methyl)amino)-4-(o-tolyl)-2H-chromen-2-one] |
| 21000 nM | Cc1ccccc1-c1cc(=O)oc2cc(NC3(C(N)=O)CC3)ccc12 [Example 213, 1-((2-oxo-4-(o-tolyl)-2H-chromen-7-yl)amino)cyclopropane-1-carboxamide] |
| 600 nM | Cc1ccccc1-c1cc(=O)oc2cc(NCC3(C(=O)O)CC3)ccc12 [Example 216, 1-(((2-oxo-4-(o-tolyl)-2H-chromen-7-yl)amino)methyl)cyclopropane-1-carboxylic acid] |

Continued, compound first:

| Structure (SMILES) | IC50 |
| --- | --- |
| Cc1ccccc1-c1cc(=O)oc2cc(CC(C)C(=O)N3CCC[C@H](C(N)=O)C3)ccc12 (single isomer, unassigned) [Example 89] | 100 nM |
| C[C@@H](Nc1ccc2c(-c3ccc(F)cc3Cl)cc(=O)oc2c1)C(=O)N1CCOCC1 [Example 47, (R)-4-(2-chloro-4-fluorophenyl)-7-((1-morpholino-1-oxopropan-2-yl)amino)-2H-chromen-2-one] | 400 nM |
| Cc1ccccc1-c1cc(=O)oc2cc(CC(C)C(=O)N3CCC(C(=O)O)CC3)ccc12 (single isomer, unassigned) [Example 94, 1-(2-methyl-3-(2-oxo-4-(o-tolyl)-2H-chromen-7-yl)propanoyl)piperidine-4-carboxylic acid] | 200 nM |
| CCOC(C)c1ccc2c(-c3ccc(F)cc3Cl)cc(=O)oc2c1 (single isomer, unassigned) [Example 41, 4-(2-chloro-4-fluorophenyl)-7-(1-ethoxyethyl)-2H-chromen-2-one] | 1000 nM |
| CNC(=O)C(C)Cc1ccc2c(-c3ccccc3C)cc(=O)oc2c1 (single isomer, unassigned) [Example 66, N,2-dimethyl-3-(2-oxo-4-(o-tolyl)-2H-chromen-7-yl)propanamide] | 500 nM |
| Nc1ccc2c(-c3ccc(F)cc3Cl)cc(=O)oc2c1 [Example 11, 7-amino-4-(2-chloro-4-fluorophenyl)-2H-chromen-2-one] | 24000 nM |
| CNC(=O)[C@H]1CCCN(C(=O)C(C)Cc2ccc3c(-c4ccccc4C)cc(=O)oc3c2)C1 (single isomer, unassigned) [Example 92] | 200 nM |
| COC(C)c1ccc2c(-c3ccccc3C)cc(=O)oc2c1 (stereo not drawn) [Example 74, 7-(1-methoxyethyl)-4-(o-tolyl)-2H-chromen-2-one] | 700 nM |
| Cc1ccccc1-c1cc(=O)oc2cc(NCc3ccccc3)ccc12 [Example 107, 7-(benzylamino)-4-(o-tolyl)-2H-chromen-2-one] | 3000 nM |
| C[C@H](Cc1ccc2c(-c3ccc(F)cc3Cl)cc(=O)oc2c1)C(=O)N1CCCCC1 [Example 19, (R)-4-(2-chloro-4-fluorophenyl)-7-(2-methyl-3-oxo-3-(piperidin-1-yl)propyl)-2H-chromen-2-one] | 24000 nM |
| CC(=O)N(C)C(C)c1ccc2c(-c3ccccc3C)cc(=O)oc2c1 (stereo not drawn) [Example 77, N-methyl-N-(1-(2-oxo-4-(o-tolyl)-2H-chromen-7-yl)ethyl)acetamide] | 2000 nM |
| Cc1ccccc1-c1cc(=O)oc2cc(C#N)ccc12 [Example 43, 2-oxo-4-(o-tolyl)-2H-chromene-7-carbonitrile] | 13000 nM |
| Cc1ccccc1-c1cc(=O)oc2cc(C(=O)NC3CCCC3)ccc12 [Example 36, N-cyclopentyl-2-oxo-4-(o-tolyl)-2H-chromene-7-carboxamide] | 2000 nM |
| COC[C@H](Nc1ccc2c(-c3ccccc3C)cc(=O)oc2c1)C(=O)N1CCC[C@H](C(=O)O)C1 [Example 103, (S)-1-(O-methyl-N-(2-oxo-4-(o-tolyl)-2H-chromen-7-yl)-seryl)piperidine-3-carboxylic acid] | 5000 nM |
